Data on 16 compounds can be found in ChEMBL document CHEMBL1201862, “PubChem BioAssay data set” (2004).

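Values below derive from 48-hour exposures of cells grown in 96-well plates, with endpoints linearly interpolated between the two concentrations bracketing the appropriate inhibition level. Abbreviation: GI50, concentration required for 50% inhibition of growth.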 Calls of active or inactive are those of the source. Cut-off read from the data, not from the text of the source: active = GI50 up to about 1.1 µM and inactive = higher.

Some test systems named below: HOP-62; UACC-257; OVCAR-8; IGROV-1; RPMI-8226; HCT-116; K562; SN12C; HCC 2998; SK-MEL-5; U-251; KM12; OVCAR-5; Malme-3M.
Assay in all cases: NCI tumour cell line growth inhibition, 48 h

On to `Nc1nc(Cl)cc(NCCCCCCCCNc2cc(Cl)nc(N)n2)n1`, for which the GI50 with HOP-62 was 27.8 µM (inactive); in the experiment with UACC-257, 2.91 µM (inactive); in the experiment with OVCAR-8, 11.7 µM (inactive); in the experiment with IGROV-1, 23.7 µM (inactive); in the experiment with RPMI-8226, 2.4 µM (inactive); in the experiment on HCT-116 it was 2.39 µM (inactive). Moreover, the GI50 is 2.2 µM (inactive) in the experiment on K562; 57.4 µM (inactive) in the experiment on SN12C; 65.6 µM (inactive) in the experiment with HCC 2998; 0.675 µM (active) with SK-MEL-5; 25.6 µM (inactive) in the experiment with U-251; 14.7 µM (inactive) with KM12.
Turning to `O=C(O)c1c([N+](=O)[O-])cc(C(F)(F)F)cc1[N+](=O)[O-]`, the GI50 with OVCAR-5, with HOP-62, in the experiment on UACC-257, in the experiment on OVCAR-8, with IGROV-1 and in the experiment with RPMI-8226 was > 100 µM (inactive) in each case. In addition, the GI50 in the experiment on HCT-116, with K562, with SN12C, with SK-MEL-5, in the experiment on U-251 and in the experiment on KM12 was > 100 µM (inactive) in each case.
Turning to `O=C1O[C@H](c2ccccc2)[C@@H]2CC3(CCN12)OCCO3`, the GI50 in the experiment with OVCAR-5, with HOP-62, in the experiment on UACC-257, in the experiment with OVCAR-8, in the experiment on IGROV-1 and in the experiment on RPMI-8226 was > 100 µM (inactive) in each case. The GI50 in the experiment on HCT-116, in the experiment on K562, with SN12C, in the experiment on SK-MEL-5, in the experiment on U-251 and in the experiment on KM12 was > 100 µM (inactive) throughout.
For `CCNC(=O)COc1ccc(Cl)c(C)c1`, the GI50 with OVCAR-5, with HOP-62, in the experiment with UACC-257, with IGROV-1, with RPMI-8226 and with HCT-116 was > 100 µM (inactive) each time. The GI50 in the experiment on K562, in the experiment with SN12C, in the experiment on Malme-3M, in the experiment with HCC 2998, in the experiment on SK-MEL-5 and in the experiment with U-251 was > 100 µM (inactive) throughout. In addition, in the experiment on KM12, the GI50 was > 100 µM (inactive).
For `CCCCCCCCOCC(O)COC` (centres undefined), the GI50 with OVCAR-5 was > 100 µM (inactive); with HOP-62, > 100 µM (inactive); in the experiment with UACC-257, 69.7 µM (inactive); in the experiment on OVCAR-8 it was > 100 µM (inactive); with IGROV-1 it was > 100 µM (inactive); with RPMI-8226 it was > 100 µM (inactive). In addition, the GI50 in the experiment with HCT-116 is > 100 µM (inactive); in the experiment with K562, 63.8 µM (inactive); in the experiment with SN12C, > 100 µM (inactive); in the experiment with Malme-3M, > 100 µM (inactive); in the experiment on HCC 2998, > 100 µM (inactive); in the experiment with SK-MEL-5, > 100 µM (inactive). Moreover, in the experiment on U-251, the GI50 is > 100 µM (inactive).
Regarding `O=C(/C(=C/c1ccc(Cl)cc1)c1ccccc1)c1ccccc1`, the GI50 was 22.6 µM (inactive) in the experiment with OVCAR-5; 25.9 µM (inactive) in the experiment with HOP-62; 13.6 µM (inactive) in the experiment with UACC-257; 20.3 µM (inactive) with OVCAR-8; 18.7 µM (inactive) with IGROV-1; 18.5 µM (inactive) in the experiment with RPMI-8226. The GI50 is 13.6 µM (inactive) with HCT-116; 27.4 µM (inactive) with K562; 16.7 µM (inactive) with SN12C; 17 µM (inactive) in the experiment on Malme-3M; 16.9 µM (inactive) in the experiment on HCC 2998; 17 µM (inactive) with U-251. Besides, the GI50 in the experiment with KM12 was 16.9 µM (inactive).
With `CC1(c2cccc(N)c2)C2C(=O)NC(=O)C1C(=O)NC2=O` (centres undefined), the GI50 in the experiment with OVCAR-5 is 38.6 µM (inactive); with HOP-62 it was 32.2 µM (inactive); in the experiment on UACC-257 it was 37.9 µM (inactive); with OVCAR-8, 35.9 µM (inactive); in the experiment on IGROV-1, 44.3 µM (inactive); in the experiment on RPMI-8226, 16 µM (inactive). Also, the GI50 with K562 was 24.2 µM (inactive); in the experiment on SN12C it was 29 µM (inactive); in the experiment with Malme-3M, 31.1 µM (inactive); in the experiment with HCC 2998 it was 52.2 µM (inactive); with SK-MEL-5, 18.5 µM (inactive); in the experiment with KM12, 23.6 µM (inactive).
On to `N#CC1CC2(C1)OCCS2` (centres undefined), for which the GI50 in the experiment on OVCAR-5, in the experiment with HOP-62, in the experiment on UACC-257, with OVCAR-8, in the experiment on IGROV-1 and in the experiment with RPMI-8226 was > 100 µM (inactive) in each case. The GI50 with HCT-116, in the experiment with K562, with SN12C, with HCC 2998, in the experiment on U-251 and in the experiment with KM12 was > 100 µM (inactive) in each case.
As for `CCC1(C(=O)OC)CCc2c(OC)ccc(OC)c2C1=O` (centres undefined), the GI50 in the experiment on OVCAR-5, with HOP-62, in the experiment on UACC-257, with OVCAR-8, with IGROV-1 and in the experiment on RPMI-8226 was > 100 µM (inactive) in each case. In addition, the GI50 with HCT-116, in the experiment with K562, in the experiment with SN12C, with Malme-3M, in the experiment on HCC 2998 and with SK-MEL-5 was > 100 µM (inactive) in each case. Further, the GI50 in the experiment with U-251 and in the experiment with KM12 was > 100 µM (inactive) in each case.
`C/C(CCn1[nH]c(=O)ccc1=O)=N\NC(=O)C(N)=O`: the GI50 in the experiment with OVCAR-5, with HOP-62, in the experiment with UACC-257, with OVCAR-8, in the experiment on IGROV-1 and in the experiment with HCT-116 was > 100 µM (inactive) each time. Moreover, the GI50 in the experiment with K562, with SN12C, in the experiment on Malme-3M, in the experiment with HCC 2998, with SK-MEL-5 and with U-251 was > 100 µM (inactive) throughout. Further, in the experiment on KM12, the GI50 is > 100 µM (inactive).
`Cc1nc(Nc2ccc([N+](=O)[O-])cc2)sc1C(/C=C/c1ccc(N(C)C)cc1)=N/NC(=O)c1ccccc1`: the GI50 is > 100 µM (inactive) with OVCAR-5; 40 µM (inactive) in the experiment with HOP-62; 82.2 µM (inactive) in the experiment on UACC-257; > 100 µM (inactive) in the experiment with OVCAR-8; 51.3 µM (inactive) in the experiment with IGROV-1; 63.7 µM (inactive) in the experiment on HCT-116. Besides, the GI50 is 18.5 µM (inactive) with K562; 59.3 µM (inactive) in the experiment with SN12C; 70 µM (inactive) in the experiment on Malme-3M; 41.3 µM (inactive) in the experiment with HCC 2998; 56.6 µM (inactive) in the experiment with U-251; 36.4 µM (inactive) in the experiment with KM12.
With `COc1ccc(/C(C#N)=C(/N)SCc2ccccc2Cl)cc1`, the GI50 in the experiment on OVCAR-5 is 18.2 µM (inactive); in the experiment on HOP-62 it was 14.8 µM (inactive); in the experiment with UACC-257 it was 16.7 µM (inactive); in the experiment with OVCAR-8, > 10 µM (inactive); in the experiment with IGROV-1 it was 29.2 µM (inactive); in the experiment with RPMI-8226, 22.8 µM (inactive). Besides, the GI50 with HCT-116 was 18.8 µM (inactive); in the experiment with K562, 18.5 µM (inactive); with SN12C, 24.7 µM (inactive); in the experiment on Malme-3M it was 17.5 µM (inactive); with HCC 2998 it was 17 µM (inactive); in the experiment with U-251, 18.1 µM (inactive). In the experiment on KM12, the GI50 is > 10 µM (inactive).
As for `COC(=O)C12C3C4C1C1C2C3C41C(=O)O` (centres undefined), the GI50 in the experiment with OVCAR-5, in the experiment with HOP-62, with UACC-257, in the experiment on OVCAR-8, with IGROV-1 and with RPMI-8226 was > 100 µM (inactive) each time. Further, the GI50 in the experiment with K562, with SN12C, with Malme-3M, in the experiment with HCC 2998, in the experiment on SK-MEL-5 and in the experiment with U-251 was > 100 µM (inactive) each time.
As to `O=C(O)C1C2CC3CC2CC31` (centres undefined), the GI50 with OVCAR-5, with HOP-62, in the experiment with UACC-257, with OVCAR-8, in the experiment on IGROV-1 and in the experiment on RPMI-8226 was > 100 µM (inactive) in each case. The GI50 with HCT-116, in the experiment with K562, in the experiment on SN12C, in the experiment with Malme-3M, in the experiment on SK-MEL-5 and in the experiment with U-251 was > 100 µM (inactive) each time. In addition, the GI50 in the experiment on KM12 was > 100 µM (inactive).
As to `CCOC(=O)C[C@@]12CCCNC1(C)CCc1ccccc12` (some centres undefined), the GI50 in the experiment on HOP-62, with UACC-257, with OVCAR-8, in the experiment on IGROV-1, in the experiment with RPMI-8226 and in the experiment on HCT-116 was > 100 µM (inactive) each time. In addition, the GI50 with K562, in the experiment on SN12C, in the experiment on Malme-3M, with SK-MEL-5, with U-251 and in the experiment on KM12 was > 100 µM (inactive) throughout.
Consider `COc1cc(C)c(CC/C(C)=C/Cc2cc(O)ccc2O)c(C)c1C` [PANICEIN A HYDROQUINONE], for which the GI50 with OVCAR-8, with IGROV-1, in the experiment on RPMI-8226, in the experiment with HCT-116, in the experiment with K562 and in the experiment with SN12C was > 25 µM (inactive) throughout. The GI50 in the experiment with Malme-3M, in the experiment on HCC 2998, in the experiment on SK-MEL-5, with U-251 and in the experiment on KM12 was > 25 µM (inactive) each time.
